Reference: ChEMBL document CHEMBL5344418, “Recent developments in antimalarial activities of 4-aminoquinoline derivatives” (Eur J Med Chem, 2023)
Values belong to the compound of their own block, whether it stands above or below them.

What was measured:
[1] = Cytotoxicity against African green monkey Vero cells assessed as reduction in cell viability incubated for 24 hrs by fluorescence based analysis; format: toxicity; settings: African green monkey (Chlorocebus sabaeus)
[2] = test system: Hemozoin; assay: Inhibition of Beta-hematin formation in Plasmodium falciparum 3D7 by spectrophotometric analysis
[3] = test system: Hemozoin; assay: Inhibition of Beta-hematin formation in Plasmodium falciparum K1 by spectrophotometric analysis
[4] = test system: Plasmodium falciparum; assay: Antiplasmodial activity against Plasmodium falciparum 3D7 assessed as growth inhibition measured after 72 hrs by SYBR green dye based assay; format: functional, organism-based; settings: 3D7, 72 h
[5] = test system: Plasmodium falciparum; assay: Antiplasmodial activity against Plasmodium falciparum K1 assessed as growth inhibition measured after 72 hrs by SYBR green dye based assay; format: functional, organism-based; settings: K1, 72 h
[6] = test system: Plasmodium falciparum; assay: Antiplasmodial activity against chloroquine-sensitive Plasmodium falciparum NF54 by lactate dehydrogenase assay; format: functional, organism-based
[7] = Cytotoxicity against Chinese hamster CHO cells assessed as reduction in cell viability by MTT assay; format: toxicity, cell-based; settings: Chinese hamster (Cricetulus griseus)
[8] = Cytotoxicity against African green monkey Vero cells assessed as reduction in cell viability incubated for 24 hrs by MTT assay; format: toxicity, cell-based; settings: African green monkey (Chlorocebus sabaeus)
[9] = test system: Plasmodium falciparum; assay: Antiplasmodial activity against Plasmodium falciparum W2 assessed as reduction in plasmodial growth after 48 hrs by fluorescence based analysis; format: functional, organism-based; settings: W2, 48 h
[10] = test system: Plasmodium falciparum; assay: Antimalarial activity against chloroquine-sensitive Plasmodium falciparum 3D7 assessed as reduction in parasite growth incubated for 72 hrs by SYBR Green staining based fluorescence analysis; format: functional, organism-based; settings: 3D7, 72 h

SMILES: O=C1c2ccc(N3CCCCC3)cc2C(=O)N1CCCCNc1ccnc2cc(Cl)ccc12
IC50 at 24 h [1]: 27 µM

SMILES: O=C1c2ccc(N3CCN(CCO)CC3)cc2C(=O)N1CCCCNc1ccnc2cc(Cl)ccc12
IC50 at 24 h [1]: 24.6 µM

IC50 [2]: 5 µM | IC50 [3]: 460 nM
SMILES: Cc1ccsc1-c1cncn1CCNc1ccnc2cc(Cl)ccc12

SMILES: O=C1c2ccc(N3CCN(CCO)CC3)cc2C(=O)N1CCCCCCNc1ccnc2cc(Cl)ccc12
IC50 at 24 h [1]: 23.3 µM

IC50 [2]: 0.14 µM | IC50 [3]: 500 nM
SMILES: CC(C)(C)c1cncn1CCNc1ccnc2cc(Cl)ccc12

SMILES: O=C1c2cccc(N3CCOCC3)c2C(=O)N1CCCCCCNc1ccnc2cc(Cl)ccc12
IC50 at 24 h [1]: 50.8 µM

SMILES: O=C1c2ccc(N3CCOCC3)cc2C(=O)N1CCCCCCNc1ccnc2cc(Cl)ccc12
IC50 at 24 h [1]: 25.4 µM

IC50 [2]: 2.83 µM | IC50 [3]: 290 nM
SMILES: CC(C)c1ccc(-c2cncn2CCNc2ccnc3cc(Cl)ccc23)cc1

SMILES: O=C1c2ccc(N3CCN(CCO)CC3)cc2C(=O)N1CCCNc1ccnc2cc(Cl)ccc12
IC50 at 24 h [1]: 25.3 µM

IC50 [2]: 0.21 µM | IC50 [3]: 450 nM
SMILES: FC(F)(F)c1ccc(-c2cncn2CCNc2ccnc3cc(Cl)ccc23)cc1

SMILES: CCN1CCN(CC(Cc2ccccc2)Nc2ccnc3cc(Cl)ccc23)CC1 (centres undefined)
IC50 [4]: 428 nM | IC50 [5]: 70.8 nM

SMILES: Clc1ccc2c(NC(Cc3ccccc3)CN3CCN(Cc4ccc5c(c4)OCO5)CC3)ccnc2c1 (centres undefined)
IC50 [4]: 757 nM | IC50 [5]: 89 nM

IC50 [2]: 5 µM | IC50 [3]: 1700 nM
SMILES: Clc1ccc2c(NCCn3cncc3-c3c[nH]c4ccccc34)ccnc2c1

IC50 [6]: 580 nM
SMILES: COc1ccc(/C=C/C(=O)c2ccc(S(=O)(=O)NCCCNc3cncc4cc(Cl)ccc34)cc2)c(OC)c1OC
IC50 [7]: 22.6 µM

SMILES: CCN(CC)c1ccc2c(c1)C(=O)N(CCC(=O)NCCCCCCNc1ccnc3cc(Cl)ccc13)C2=O
IC50 at 24 h [8]: > 182 µM | IC50 [9]: 530 nM

SMILES: CCN1CCN(CC(CC(C)C)Nc2ccnc3cc(Cl)ccc23)CC1 (centres undefined)
IC50 [4]: 57 nM | IC50 [5]: 97.8 nM

SMILES: CSCCC(CN1CCN(Cc2ccccc2)CC1)Nc1ccnc2cc(Cl)ccc12 (centres undefined)
IC50 [4]: 3100 nM | IC50 [5]: > 5000 nM

IC50 [6]: 500 nM
SMILES: O=C(/C=C/c1ccc(F)cc1F)c1ccc(S(=O)(=O)NCCCNc2cncc3cc(Cl)ccc23)cc1
IC50 [7]: 22.4 µM

IC50 [6]: 100 nM
SMILES: O=C(/C=C/c1ccc(Cl)cc1)c1ccc(S(=O)(=O)NCCCNc2cncc3cc(Cl)ccc23)cc1
IC50 [7]: 41.2 µM

IC50 [6]: 4450 nM
SMILES: O=C(/C=C/c1ccco1)c1ccc(S(=O)(=O)NCCCNc2cncc3cc(Cl)ccc23)cc1
IC50 [7]: > 50 µM

SMILES: O=C1c2ccc(N3CCN(CCO)CC3)cc2C(=O)N1CCNc1ccnc2cc(Cl)ccc12
IC50 at 24 h [1]: 26 µM

IC50 [6]: 390 nM
SMILES: Cc1ccc(/C=C/C(=O)c2ccc(S(=O)(=O)NCCNc3cncc4cc(Cl)ccc34)cc2)cc1
IC50 [7]: 24.9 µM

SMILES: CCN1CCN(CC(C)Nc2ccnc3cc(Cl)ccc23)CC1 (centres undefined)
IC50 [4]: 126 nM | IC50 [5]: 362 nM

SMILES: O=C1c2ccc(N3CCOCC3)cc2C(=O)N1CCCCNc1ccnc2cc(Cl)ccc12
IC50 at 24 h [1]: 26.9 µM

IC50 [2]: 5 µM | IC50 [3]: 2620 nM
SMILES: Clc1ccc2c(NCCn3cncc3-c3cccc(Oc4ccccc4)c3)ccnc2c1

SMILES: O=C1c2cccc(N3CCCCC3)c2C(=O)N1CCCCCCNc1ccnc2cc(Cl)ccc12
IC50 at 24 h [1]: 204 µM

IC50 [6]: 370 nM
SMILES: O=C(/C=C/c1ccccc1Cl)c1ccc(S(=O)(=O)NCCNc2cncc3cc(Cl)ccc23)cc1
IC50 [7]: 35.4 µM

SMILES: CN(c1ccnc2cc(C(F)(F)F)ccc12)C(Cc1ccccc1)CN1CCCCC1 (centres undefined)
IC50 [10]: 1370 nM

IC50 [6]: 860 nM
SMILES: O=C(/C=C/c1ccccc1F)c1ccc(S(=O)(=O)NCCCNc2cncc3cc(Cl)ccc23)cc1
IC50 [7]: 45.5 µM

SMILES: CC(C)CC(CN1CCN(c2ncccn2)CC1)Nc1ccnc2cc(Cl)ccc12 (centres undefined)
IC50 [4]: 460 nM | IC50 [5]: 352 nM

SMILES: CN(c1ccnc2cc(C(F)(F)F)ccc12)C(Cc1ccccc1)CN1CCOCC1 (centres undefined)
IC50 [10]: 3890 nM

SMILES: CCN1CCN(CC(CC(C)C)Nc2ccnc3cc(C(F)(F)F)ccc23)CC1 (centres undefined)
IC50 [4]: 24.5 nM | IC50 [5]: 798 nM

SMILES: O=C(CN1C(=O)c2ccc(N3CCN(CCO)CC3)cc2C1=O)NCCCCCCNc1ccnc2cc(Cl)ccc12
IC50 at 24 h [8]: > 169 µM | IC50 [9]: 460 nM

SMILES: O=C1c2cccc(N3CCOCC3)c2C(=O)N1CCCCNc1ccnc2cc(Cl)ccc12
IC50 at 24 h [1]: 108 µM

SMILES: CC(C)CC(CN1CCN(Cc2ccc3c(c2)OCO3)CC1)Nc1ccnc2cc(Cl)ccc12 (centres undefined)
IC50 [4]: 211 nM | IC50 [5]: 453 nM

IC50 [2]: 5 µM | IC50 [3]: 1150 nM
SMILES: Clc1ccc2c(NCCn3cncc3-c3ccc[nH]3)ccnc2c1

IC50 [6]: 490 nM
SMILES: COc1ccc(/C=C/C(=O)c2ccc(S(=O)(=O)NCCNc3cncc4cc(Cl)ccc34)cc2)cc1
IC50 [7]: 17.5 µM

IC50 [6]: 320 nM
SMILES: COc1ccc(/C=C/C(=O)c2ccc(S(=O)(=O)NCCCNc3cncc4cc(Cl)ccc34)cc2)cc1OC
IC50 [7]: 43.4 µM
